Read-outs that look alike come from different tables or passages of the source.
How the values were obtained:
[1] = system: avian chorioallantoic membrane; type: in vivo
From the text: To develop the VESGEN system mapping capabilities, proangiogenesis and antiangiogenesis factors were first studied in the avian chorioallantoic membrane, a well-established, experimentally convenient 2D, optically accessible model of microvascular remodeling, angiogenesis and angiogenesis therapeutics.

[2] = system: blood vessels; experiment: VESGEN analysis of regulators of blood vessel growth by vessel branching generation; type: in vivo; conditions: for vessel number, density or diameter for larger pre-existing vessels: larger pre-existing vessels of G1-G4
From the text: The stimulator bFGF and inhibitor TGF-beta1 may be regarded as robust but simple regulators of blood vessel growth, because of their selective regulation of the growth of new small vessels. Other important regulators like vascular endothelial growth factor-165 (VEGF-165), also known as vascular permeability factor (VPF), are more complex in their regulatory activities. […] All healthy and unhealthy (abnormal) fluid shifts in the body are tightly regulated by the small vessels (vascular and lymphatic capillaries) except during trauma such as flesh wounds. The VESGEN system may support analysis of such retinal and brain vascular changes mediating the fluid shifts from images of experimental animals and clinical diagnostic images of humans.

[3] = chorioallantoic membrane, with higher concentrations

Substance: vascular endothelial growth factor-165 [VEGF]
- diameter of larger vessels ([1]; avian chorioallantoic membrane, at high concentrations): significantly dilated
- growth of new small vessels ([1]; avian chorioallantoic membrane, at low concentrations): stimulated the growth of new small vessels
- vessel density ([1]; chorioallantoic membrane, at low concentrations): increased
- diameters of larger arteries [1, 3]: increasing diameters of larger arteries
- vessel density [1, 3]: progressively decreasing vessel density
- vessel leakage, vessel swelling and vessel tortuosity ([2]; blood vessel morphology): induction of vessel leakage, vessel swelling and vessel tortuosity
- growth and swelling of the associated lymphatic vascular system ([2]; lymphatic vascular system): stimulates the growth and swelling of the associated lymphatic vascular system
- growth of new small vessels of vessel generation G5 and greater [2]: stimulation of the growth of new, small blood vessels

Substance: basic fibroblast growth factor [bFGF]
- growth of small vessels ([1]; avian chorioallantoic membrane): stimulated specifically the robust growth of many small vessels
- vessel number, density or diameter for larger pre-existing vessels [2]: did not affect
- growth of new small vessels of vessel generation G5 and greater [2]: stimulation of the growth of new small vessels of vessel generation G5 and greater

Substance: angiostatin
- vascular morphology on inhibition of angiogenesis ([1]; avian chorioallantoic membrane): rendered the vascular tree highly abnormal and irregular

Substance: transforming growth factor beta-1 [transforming growth factor (TGF) β-1]
- vascular morphology on inhibition of angiogenesis ([1]; avian chorioallantoic membrane): retained a normal vascular morphology
- vessel number, density or diameter for larger pre-existing vessels [2]: did not affect
- growth of new small vessels of vessel generation G5 and greater [2]: inhibition of the growth of new small vessels of vessel generation G5 and greater

Source: patent US10282841B1, “Bioinformatic analysis of vascular patterning” (The United States of America as Represented by the …, priority 2011, dated 2019)
